Results on 25 compounds are retold here after US8664257B2, “Oxygen-substituted 3-heteroaroylamino-propionic acid derivatives and their use as pharmaceuticals” (Sanofi, priority 2010, dated 2014).

Where two headings read alike, the source gives them in different places.

The assay has as its target T1, Recombinant human cathepsin A (Homo sapiens, UniProt P10619).
T1 construct: Recombinant human cathepsin A (residues 29-480, with a C-terminal 10-His tag); 10-His (C); purchased R&D Systems 1049-SE
T1 sequence (P10619 29-312 limits assumed): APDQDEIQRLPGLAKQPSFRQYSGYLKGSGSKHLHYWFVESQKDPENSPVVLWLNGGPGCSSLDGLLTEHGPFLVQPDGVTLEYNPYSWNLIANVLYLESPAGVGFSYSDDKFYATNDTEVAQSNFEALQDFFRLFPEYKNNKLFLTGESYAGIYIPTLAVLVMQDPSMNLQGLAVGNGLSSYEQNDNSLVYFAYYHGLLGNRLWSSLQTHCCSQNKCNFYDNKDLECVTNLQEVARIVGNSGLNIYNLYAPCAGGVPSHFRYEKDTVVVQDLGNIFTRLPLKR
T1 sequence (P10619 327-480 limits assumed): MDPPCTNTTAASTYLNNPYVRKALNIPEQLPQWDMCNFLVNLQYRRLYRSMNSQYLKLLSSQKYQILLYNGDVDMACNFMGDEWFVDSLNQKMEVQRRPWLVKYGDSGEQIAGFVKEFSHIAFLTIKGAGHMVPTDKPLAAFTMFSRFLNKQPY
The assay can be described thus: Cathepsin A inhibitory activity. Format: biochemical. An outline of the steps: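 Human cathepsin A (res. 29-480, C-His10) pre-activated with cathepsin L (MES pH 6.0, DTT, 15 min, 37 °C; quenched with 10 μM E-64). Enzyme (833 ng/ml) preincubated 15 min RT with compound in MES pH 5.5/DTT, then 2 μM Bodipy FL-bradykinin for 15 min RT. Capillary electrophoresis product/substrate peak areas; IC50 from % inhibition.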

[1] abbreviates: read-out: Activity (2): Cathepsin A inhibitory activity, IC50 class.
Setting [2] is: recombinant human cathepsin A 833 ng/ml, Bodipy FL-labeled bradykinin 2 μM, pH 5.5, read-out: CATH-A IC50.
Setting [3] is: recombinant human cathepsin A, read-out: Activity (2): Cathepsin A inhibitory activity, IC50 class.

Regarding `CC(C)C(C)(O)COc1cc(C(=O)N[C@H](CC(=O)O)Cc2ccccc2)nn1-c1ccccc1F` (stereo partly drawn) [Example 838, (S)-3-{[1-(2-Fluoro-phenyl)-5-(2-hydroxy-2,3-dimethyl-butoxy)-1H-pyrazole-3-carbonyl]-amino}-4-phenyl-butyric acid], under setting [1], the IC50 lay in the range of 1000 to 30000 nM.
Same read-out and setting: for `CC(C)(C)C(=O)COc1cc(C(=O)N[C@@H](CC(=O)O)c2cccc(Cl)c2Cl)nn1-c1ccccc1F` [Example 839, (S)-3-(2,3-Dichloro-phenyl)-3-{[5-(3,3-dimethyl-2-oxo-butoxy)-1-(2-fluoro-phenyl)-1H-pyrazole-3-carbonyl]-amino}-propionic acid] the value was under 100 nM.
Same read-out and setting: for `COc1ccc([C@H](CC(=O)O)NC(=O)c2cc(OC[C@@](C)(O)C(C)C)n(-c3ccccc3F)n2)cc1` [Example 840, (S)-3-{[1-(2-Fluoro-phenyl)-5-((S)-2-hydroxy-2,3-dimethyl-butoxy)-1H-pyrazole-3-carbonyl]-amino}-3-(4-methoxy-phenyl)-propionic acid] the value was 1000 to 30000 nM; for `CC(C)C[C@@H](CC(=O)O)NC(=O)c1cc(OC[C@@](C)(O)C(C)C)n(-c2ccccc2F)n1` [Example 841, (S)-3-{[1-(2-Fluoro-phenyl)-5-((S)-2-hydroxy-2,3-dimethyl-butoxy)-1H-pyrazole-3-carbonyl]-amino}-5-methyl-hexanoic acid], 1000 to 30000 nM; for `CC(C)[C@](C)(O)COc1cc(C(=O)N[C@@H](CC(=O)O)c2ccc(Cl)cc2Cl)nn1-c1ccccc1F` [Example 849, (S)-3-(2,4-Dichloro-phenyl)-3-{[1-(2-fluoro-phenyl)-5-((S)-2-hydroxy-2,3-dimethyl-butoxy)-1H-pyrazole-3-carbonyl]-amino}-propionic acid], under 100 nM.
On the same count and under the same terms, for `COc1ccc([C@H](CC(=O)O)NC(=O)c2cc(OC[C@](C)(O)C(C)C)n(-c3ccccc3F)n2)cc1` [Example 850, (S)-3-{[1-(2-Fluoro-phenyl)-5-((R)-2-hydroxy-2,3-dimethyl-butoxy)-1H-pyrazole-3-carbonyl]-amino}-3-(4-methoxy-phenyl)-propionic acid] the value was under 100 nM; for `CC(C)(C)[C@@](C)(O)COc1cc(C(=O)N[C@@H](CC(=O)O)c2ccccc2F)nn1-c1ccccc1F` [Example 854, (S)-3-(2-Fluoro-phenyl)-3-{[1-(2-fluoro-phenyl)-5-((R)-2-hydroxy-2,3,3-trimethyl-butoxy)-1H-pyrazole-3-carbonyl]-amino}-propionic acid], 100 to 1000 nM.
For the compound `Cc1ccccc1[C@H](CC(=O)O)NC(=O)c1cc(OC[C@](C)(O)C(C)C)n(-c2ccccc2F)n1` [Example 857, (S)-3-{[1-(2-Fluoro-phenyl)-5-((R)-2-hydroxy-2,3-dimethyl-butoxy)-1H-pyrazole-3-carbonyl]-amino}-3-o-tolyl-propionic acid], under setting [1], the IC50 is under 100 nM.
The same measure, in the same setting: for `Cc1ccc([C@H](CC(=O)O)NC(=O)c2cc(OC[C@](C)(O)C(C)C)n(-c3ccccc3F)n2)c(C)c1` [Example 859, (S)-3-(2,4-Dimethyl-phenyl)-3-{[1-(2-fluoro-phenyl)-5-((R)-2-hydroxy-2,3-dimethyl-butoxy)-1H-pyrazole-3-carbonyl]-amino}-propionic acid] the value was under 100 nM.
For `Cc1ccc([C@H](CC(=O)O)NC(=O)c2cc(OC[C@](C)(O)C(C)C)n(-c3ccccc3F)n2)cc1` [Example 860, (S)-3-{[1-(2-Fluoro-phenyl)-5-((R)-2-hydroxy-2,3-dimethyl-butoxy)-1H-pyrazole-3-carbonyl]-amino}-3-p-tolyl-propionic acid], the half-maximal inhibitory concentration (IC50) reads like this: under setting [1], under 100 nM; under setting [2], 76.1 nM.
In the case of `CC(C)[C@@](C)(O)COc1cc(C(=O)N[C@@H](CC(=O)O)c2ccccc2Cl)nn1-c1ccccc1F` [Example 861, (S)-3-(2-Chloro-phenyl)-3-{[1-(2-fluoro-phenyl)-5-((R)-2-hydroxy-2,3-dimethyl-butoxy)-1H-pyrazole-3-carbonyl]-amino}-propionic acid], the IC50 (number printed in place of a class symbol, unit from footnote (2), read-out: Activity (2): Cathepsin A inhibitory activity, IC50 printed as a numeric bound) is over 30000 nM.
Consider `CC(C)[C@@](C)(O)COc1cc(C(=O)N[C@@H](CC(=O)O)c2ccccc2F)nn1-c1ccccc1F` [Example 862, (S)-3-(2-Fluoro-phenyl)-3-{[1-(2-fluoro-phenyl)-5-((R)-2-hydroxy-2,3-dimethyl-butoxy)-1H-pyrazole-3-carbonyl]-amino}-propionic acid], for which the IC50 under setting [1] fell in the range of 100 to 1000 nM.
As to `Cc1ccccc1[C@H](CC(=O)O)NC(=O)c1cc(OC[C@@](C)(O)C(C)C)n(-c2ccccc2F)n1` [Example 870, (S)-3-{[1-(2-Fluoro-phenyl)-5-((S)-2-hydroxy-2,3-dimethyl-butoxy)-1H-pyrazole-3-carbonyl]-amino}-3-o-tolyl-propionic acid], the IC50 under setting [1] is under 100 nM and the IC50 under setting [2] turned out to be 76 nM.
`CC(C)[C@](C)(O)COc1cc(C(=O)N[C@@H](CC(=O)O)c2ccc(F)cc2)nn1-c1ccccc1F` [Example 872, (S)-3-(4-Fluoro-phenyl)-3-{[1-(2-fluoro-phenyl)-5-((S)-2-hydroxy-2,3-dimethyl-butoxy)-1H-pyrazole-3-carbonyl]-amino}-propionic acid]: under setting [1], the IC50 was in the range of 100 to 1000 nM.
Still for that read-out and setting: for `CC(C)[C@](C)(O)COc1cc(C(=O)N[C@@H](CC(=O)O)c2cccc(Cl)c2)nn1-c1ccccc1F` [Example 877, (S)-3-(3-Chloro-phenyl)-3-{[1-(2-fluoro-phenyl)-5-((S)-2-hydroxy-2,3-dimethyl-butoxy)-1H-pyrazole-3-carbonyl]-amino}-propionic acid] the value was 100 to 1000 nM; for `CC(C)(C)[C@](C)(O)COc1cc(C(=O)N[C@@H](CC(=O)O)c2ccc(F)cc2)nn1-c1ccccc1F` [Example 880, (S)-3-(4-Fluoro-phenyl)-3-{[1-(2-fluoro-phenyl)-5-((S)-2-hydroxy-2,3,3-trimethyl-butoxy)-1H-pyrazole-3-carbonyl]-amino}-propionic acid], under 100 nM; for `CC(C)(C)[C@](C)(O)COc1cc(C(=O)N[C@@H](CC(=O)O)c2ccccc2F)nn1-c1ccccc1F` [Example 883, (S)-3-(2-Fluoro-phenyl)-3-{[1-(2-fluoro-phenyl)-5-((S)-2-hydroxy-2,3,3-trimethyl-butoxy)-1H-pyrazole-3-carbonyl]-amino}-propionic acid], under 100 nM.
The same measure, in the same setting: for `COc1cccc([C@H](CC(=O)O)NC(=O)c2cc(OC[C@@](C)(O)C(C)(C)C)n(-c3ccccc3F)n2)c1OC` [Example 884, (S)-3-(2,3-Dimethoxy-phenyl)-3-{[1-(2-fluoro-phenyl)-5-((S)-2-hydroxy-2,3,3-trimethyl-butoxy)-1H-pyrazole-3-carbonyl]-amino}-propionic acid] the value was under 100 nM.
Still for that read-out and setting: for `Cc1ccccc1[C@H](CC(=O)O)NC(=O)c1cc(OCC(C)(O)c2ccccc2)n(-c2ccccc2F)n1` (stereo partly drawn) [Example 891, (S)-3-{[1-(2-Fluoro-phenyl)-5-(2-hydroxy-2-phenyl-propoxy)-1H-pyrazole-3-carbonyl]-amino}-3-o-tolyl-propionic acid] the value was under 100 nM.
With `COc1cc(C(=O)N[C@@H](CC(=O)NCc2ccncc2)c2ccccc2C)nn1-c1ccccc1F` [Example 916, 1-(2-Fluoro-phenyl)-5-methoxy-1H-pyrazole-3-carboxylic acid {(S)-2-[(pyridin-4-ylmethyl)-carbamoyl]-1-o-tolyl-ethyl}-amide], the IC50 under setting [3] was in the range of 1000 to 30000 nM.
`CCC(C)(C)NC(=O)C[C@H](NC(=O)c1cc(OC)n(-c2ccccc2F)n1)c1ccccc1C` [Example 917, 1-(2-Fluoro-phenyl)-5-methoxy-1H-pyrazole-3-carboxylic acid [(S)-2-(1,1-dimethyl-propylcarbamoyl)-1-o-tolyl-ethyl]-amide]: the IC50 under setting [3] lay in the range of 1000 to 30000 nM.
The same measure, in the same setting: for `CC[C@@H](C)NC(=O)C[C@H](NC(=O)c1cc(OC)n(-c2ccccc2F)n1)c1ccccc1C` [Example 918, 1-(2-Fluoro-phenyl)-5-methoxy-1H-pyrazole-3-carboxylic acid [(S)-2-((R)-sec-butylcarbamoyl)-1-o-tolyl-ethyl]-amide] the value was 1000 to 30000 nM; for `COc1cc(C(=O)N[C@@H](CC(=O)NCC(C)C)c2ccccc2C)nn1-c1ccccc1F` [Example 919, 1-(2-Fluoro-phenyl)-5-methoxy-1H-pyrazole-3-carboxylic acid ((S)-2-isobutylcarbamoyl-1-o-tolyl-ethyl)-amide], 1000 to 30000 nM; for `COc1cc(C(=O)N[C@@H](CC(=O)N[C@@H](C)C(C)(C)C)c2ccccc2C)nn1-c1ccccc1F` [Example 920, 1-(2-Fluoro-phenyl)-5-methoxy-1H-pyrazole-3-carboxylic acid [(S)-1-o-tolyl-2-((S)-1,2,2-trimethyl-propylcarbamoyl)-ethyl]-amide], 1000 to 30000 nM.
On to `CCC(COC)NC(=O)C[C@H](NC(=O)c1cc(OC)n(-c2ccccc2F)n1)c1ccccc1C` (stereo partly drawn) [Example 921, 1-(2-Fluoro-phenyl)-5-methoxy-1H-pyrazole-3-carboxylic acid [(S)-2-(1-methoxymethyl-propylcarbamoyl)-1-o-tolyl-ethyl]-amide], for which the half-maximal inhibitory concentration (IC50) under setting [3] lay in the range of 1000 to 30000 nM.

As usually defined, the IC50 is the midpoint of a concentration-inhibition curve.
